For 8 compounds, inhibition results are on record in patent US5922711A, “8-substituted quinazolines, quinoxalines and benzopyridazines” (Fujisawa Pharmaceutical Co., Ltd., priority 1993, dated 1999).

Counter-ions that a name gives are not always drawn.

The target in this test is T1, Bradykinin receptor (Cavia porcellus, UniProt O70526).
T1 construct: The ileum was removed and homogenized in buffer; from tissue; host or cells: guinea pig ileum, crude membrane suspension
T1 sequence (O70526 1-372): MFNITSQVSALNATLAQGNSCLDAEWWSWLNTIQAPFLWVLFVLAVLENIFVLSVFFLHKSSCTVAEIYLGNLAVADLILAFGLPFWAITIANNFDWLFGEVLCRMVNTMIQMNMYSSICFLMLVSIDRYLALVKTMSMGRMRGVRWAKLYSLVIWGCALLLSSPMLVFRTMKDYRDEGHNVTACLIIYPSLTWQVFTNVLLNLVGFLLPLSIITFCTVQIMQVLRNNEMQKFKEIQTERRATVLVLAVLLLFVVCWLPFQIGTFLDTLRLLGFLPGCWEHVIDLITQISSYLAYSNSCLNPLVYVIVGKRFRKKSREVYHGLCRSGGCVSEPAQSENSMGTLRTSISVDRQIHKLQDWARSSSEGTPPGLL
In words: 3H-Bradykinin receptor binding (guinea pig ileum crude membrane). Conditions: concentration: 1 × 10^-6 M, 3H-Bradykinin 0.06 nM, room temperature, 60 minutes. As to the method: ^3 H-Bradykinin receptor binding
(a) Crude ileum membrane preparation
Male Hartly strain guinea pigs were sacrificed by decapitation. The ileum was removed and homogenized in buffer (50 mM trimethylaminoethanesulfonic acid (TES), 1 mM 1,10-phenanthroline pH 6.8). The homogenate was centrifuged (1000×g, 20 minutes) to remove tissue clumps and the supernatant was centrifuges (100,000×g, 60 minutes) to yield a pellet. The pellet was resuspended in buffer (50 mm TES, 1 mM 1,10-phenanthroline, 140 mg/l bacitracin, 1 mM dithiothreiol, 0.1% bovine serum albumin pH 6.8) and homogenized with a glass-teflon homogenizer to yield suspension which was referred to as crude membrane suspension. The obtained membrane suspension was stored at -80° C. until use.
(b) ^3 H-Bradykinin binding to the membrane
The frozen crude membrane suspension was thawed. In binding assays, ^3 H-Bradykinin (0.06 nM) and drug (1×10^-6 M) were incubated with 50 μl of the membrane suspension at room temperature for 60 minutes in a final volume of 250 μl. Separation of receptor-bound from free ^3 H-Bradykinin is achieved by immediate filtration under vacuum and washed three times with 5 ml of ice-cold buffer (50 mM Tris-HCl pH 7.5). Non-specific binding was defined as binding in the presence of 0.1 μM Bradykinin. The radioactivity retained on rinsed filters was determined by a liquid-scintillation counter.
For the compound `CCNC(=O)NCC(=O)N(C)c1ccc(Cl)c(COc2cccc3c(OC)cc(C)nc23)c1Cl` [41-(64), 8-[2,6-Dichloro-3-[N-(N'-ethylureidoacetyl)-N-methylamino]benzyloxy]-4-methoxy-2-methylquinoline hydrochloride], the inhibition – broadly, the share of the control response that was lost under treatment – at 1 µM worked out at 95%. For `Cc1ccc2cccc(OCc3c(Cl)ccc(N(C)C(=O)CNC(=O)Nc4cccc(N)c4)c3Cl)c2n1` [41-(12), 8-[3-[N-[N'-(3-Aminophenyl)ureidoacetyl]-N-methylaminol-2,6-dichlorobenzyloxy]-2-methylquinolinedihydrochloride], the inhibition at 1 µM amounted to 95%. The figure for `Cc1ccc2cccc(OCc3c(Cl)ccc(N(C)C(=O)CNC(=O)/C=C/c4ccc(OCCN(C)C)cc4)c3Cl)c2n1` [41-(53), 8-[2,6-Dichloro-3-[N-[4-[2-(N,N-dimethylamino)ethoxy]cinnamoylglycyl)-N-methylamino]benzloxy]-2-methylquinoline dihydrochloride] is 99%; for `CCc1cc(Cl)c2cccc(OCc3c(Cl)ccc(N(C)C(=O)CNC(=O)Nc4cccc(C(C)=O)c4)c3Cl)c2n1` [29-(36), 8-[3-[N-[N'-(3-Acetylphenyl)ureidoacetyl]-N-methylamino]-2,6-dichlorobenzyloxy]-4-chloro-2-ethylquinoline hydrochloride] it is 98%; for `Cc1ccc2cccc(OCc3c(Cl)ccc(N(C)C(=O)CNC(=O)/C=C/c4ccc(NC(=O)c5ccccn5)cc4)c3Cl)c2n1` [58-(11) (dihydrochloride), 8-[2,6-Dichloro-3-[N-methyl-N-[4-(2-pyridine-carboxamido)cinnamoylglycyl]amino]benzyloxy]-2-methylquinoline] it is 99%.

As to `Cc1ccc2cccc(OCc3c(Cl)ccc(N(C)C(=O)CNC(=O)/C=C/c4ccc(N)cc4)c3Cl)c2n1` [35-(3), 8-[3-[N-(4-Aminocinnamoylglycyl)-N-methylamino]-2,6-dichlorobenzyloxy]-2-methylquinoline], the inhibition at 1 µM came to 99%. `Cc1ccc2cccc(OCc3c(Cl)ccc(N(C)C(=O)CNC(=O)Nc4cccc(C(=O)N(C)c5cccnc5)c4)c3Cl)c2n1` [34-(7), 8-[2,6-Dichloro-3-[N-methyl-N-[N'-[3-[N-methyl-N-(3-pyridyl)carbamoyl]phenyl]ureidoacetyl]amino]benzyloxy]-2-methylquinoline] yielded an inhibition at 1 µM of 100%.

For the compound `CCC(=O)Nc1cccc(NC(=O)NCC(=O)N(C)c2ccc(Cl)c(COc3cccc4ccc(C)nc34)c2Cl)c1` [57 (hydrochloride), 8-[2,6-Dichloro-3-[N-methyl-N-[N'-(3-propionamidophenyl)ureidoacetyl]amino]benzyloxy]-2-methylquinoline], the inhibition at 1 µM is 99%.
